This assay addresses Endothelin-1 receptor (Homo sapiens, UniProt P25101). In words: Inhibition of [125I]-endothelin-1 binding to EDNRA.

As usually defined, the IC50 is the point on the concentration scale where inhibition reaches its midpoint. The low end stands for greater potency, the high end for weaker potency.

Where only a bound is given, the exact number is not on record here.

Endothelin-1 receptor, sequence (P25101 whole entry): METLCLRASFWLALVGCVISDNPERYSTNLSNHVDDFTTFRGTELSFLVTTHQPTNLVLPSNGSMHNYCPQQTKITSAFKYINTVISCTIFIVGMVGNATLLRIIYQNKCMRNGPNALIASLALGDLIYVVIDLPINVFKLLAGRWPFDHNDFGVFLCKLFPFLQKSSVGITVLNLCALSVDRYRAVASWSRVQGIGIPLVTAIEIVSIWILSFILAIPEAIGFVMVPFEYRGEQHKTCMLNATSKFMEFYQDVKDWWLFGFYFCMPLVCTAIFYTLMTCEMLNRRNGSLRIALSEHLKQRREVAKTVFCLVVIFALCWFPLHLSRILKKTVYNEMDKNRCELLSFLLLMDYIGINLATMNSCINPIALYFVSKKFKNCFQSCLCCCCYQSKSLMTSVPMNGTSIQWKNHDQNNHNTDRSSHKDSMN

Take `FC(F)(F)c1cc(-c2ccccc2)c2nncn2c1` [TPn-004]: the IC50 was > 10 µM (not active).

Source of the values: ChEMBL document CHEMBL4507303, “Data for DCP probe TP-004” (2021).
